Series [1] has as its target Prostaglandin F2-alpha receptor (Homo sapiens, UniProt P43088). Kind of series: Antagonist activity at FP receptor in human U2OS cells expressing Gqi5 assessed as inhibition of PGE2-induced response after 48 hrs by FLIPR assay. Format: functional, cell-based.
Series [2] concerns the target T1, Prostaglandin G/H synthase 2 (Rattus norvegicus, UniProt P35355).
T1 sequence (P35355 whole entry): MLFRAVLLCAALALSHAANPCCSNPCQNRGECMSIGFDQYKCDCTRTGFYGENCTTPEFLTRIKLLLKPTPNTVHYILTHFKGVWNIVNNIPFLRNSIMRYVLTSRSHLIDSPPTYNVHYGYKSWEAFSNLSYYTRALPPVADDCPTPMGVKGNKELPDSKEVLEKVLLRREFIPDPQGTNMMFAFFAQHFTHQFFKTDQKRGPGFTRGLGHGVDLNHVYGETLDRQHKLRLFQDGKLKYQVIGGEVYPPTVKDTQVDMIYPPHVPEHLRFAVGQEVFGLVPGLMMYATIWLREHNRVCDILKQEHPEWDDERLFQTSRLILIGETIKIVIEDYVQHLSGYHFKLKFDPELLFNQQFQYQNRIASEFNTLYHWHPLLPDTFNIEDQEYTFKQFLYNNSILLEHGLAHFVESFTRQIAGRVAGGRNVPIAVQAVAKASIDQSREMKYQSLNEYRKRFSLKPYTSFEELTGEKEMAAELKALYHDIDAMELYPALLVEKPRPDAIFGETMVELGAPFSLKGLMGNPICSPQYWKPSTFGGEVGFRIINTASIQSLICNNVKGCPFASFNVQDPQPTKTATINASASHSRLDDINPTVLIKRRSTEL
Kind of series: Inhibition of COX2 in rat whole blood assessed as decreased PGE2 production. The format is tissue-based.

In series [3] the target is Prostaglandin E2 receptor EP2 subtype (Homo sapiens, UniProt P43116). Kind of series: Antagonist activity against human EP2 receptor expressed in CHO-K1 cells assessed as inhibition of cAMP production after 4 hrs by FRET signal in LANCE assay. The format is functional, cell-based.
Sequence of Prostaglandin E2 receptor EP2 subtype (P43116 whole entry): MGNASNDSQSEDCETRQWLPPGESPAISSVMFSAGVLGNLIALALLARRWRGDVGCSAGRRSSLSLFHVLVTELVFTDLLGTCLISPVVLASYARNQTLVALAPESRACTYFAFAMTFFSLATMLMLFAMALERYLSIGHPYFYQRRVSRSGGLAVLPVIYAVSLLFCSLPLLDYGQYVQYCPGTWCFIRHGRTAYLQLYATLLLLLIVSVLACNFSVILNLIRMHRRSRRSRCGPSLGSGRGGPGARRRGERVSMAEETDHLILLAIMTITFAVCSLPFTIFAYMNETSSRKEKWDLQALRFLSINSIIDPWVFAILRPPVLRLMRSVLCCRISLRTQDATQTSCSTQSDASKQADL
For series [4], the target named is T2, Prostaglandin E2 receptor EP3 subtype (Homo sapiens, UniProt P43115).
T2 sequence (P43115 whole entry): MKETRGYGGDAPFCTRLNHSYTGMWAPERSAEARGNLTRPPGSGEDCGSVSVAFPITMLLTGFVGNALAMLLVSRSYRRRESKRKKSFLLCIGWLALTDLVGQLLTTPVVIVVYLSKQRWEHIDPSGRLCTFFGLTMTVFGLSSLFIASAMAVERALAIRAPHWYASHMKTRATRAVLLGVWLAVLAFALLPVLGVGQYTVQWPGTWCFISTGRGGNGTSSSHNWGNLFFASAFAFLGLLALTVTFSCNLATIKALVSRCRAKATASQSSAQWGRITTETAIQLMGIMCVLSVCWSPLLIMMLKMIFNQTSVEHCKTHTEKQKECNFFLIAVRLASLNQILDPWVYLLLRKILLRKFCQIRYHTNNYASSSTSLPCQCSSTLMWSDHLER
Kind of series: Antagonist activity at human EP3c receptor expressed in human U2OS cells assessed as inhibition of PGE2-induced calcium mobilization after 24 hrs by FLIPR assay. Format: functional, cell-based.

Another series deals with Cytochrome P450 2C9 (Homo sapiens, UniProt P11712). Kind of series: Inhibition of CYP2C9. Format: ADME.
Sequence of Cytochrome P450 2C9 (P11712 whole entry): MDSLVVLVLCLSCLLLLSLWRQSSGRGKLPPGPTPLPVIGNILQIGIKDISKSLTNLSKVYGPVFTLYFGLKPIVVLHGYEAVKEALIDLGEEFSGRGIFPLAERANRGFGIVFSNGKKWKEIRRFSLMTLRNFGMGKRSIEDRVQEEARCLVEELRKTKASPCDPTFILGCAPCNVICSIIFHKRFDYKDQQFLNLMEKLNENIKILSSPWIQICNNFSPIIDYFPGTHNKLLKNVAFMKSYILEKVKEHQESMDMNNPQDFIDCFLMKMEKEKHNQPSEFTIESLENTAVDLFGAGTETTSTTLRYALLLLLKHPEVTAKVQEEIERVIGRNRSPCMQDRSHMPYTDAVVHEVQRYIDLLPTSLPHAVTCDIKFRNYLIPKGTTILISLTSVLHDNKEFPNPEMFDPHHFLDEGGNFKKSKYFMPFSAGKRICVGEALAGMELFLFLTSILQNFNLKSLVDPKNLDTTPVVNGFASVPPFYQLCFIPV
Series [5] concerns the target T3, Prostaglandin E2 receptor EP1 subtype (Homo sapiens, UniProt P34995).
T3 sequence (P34995 whole entry): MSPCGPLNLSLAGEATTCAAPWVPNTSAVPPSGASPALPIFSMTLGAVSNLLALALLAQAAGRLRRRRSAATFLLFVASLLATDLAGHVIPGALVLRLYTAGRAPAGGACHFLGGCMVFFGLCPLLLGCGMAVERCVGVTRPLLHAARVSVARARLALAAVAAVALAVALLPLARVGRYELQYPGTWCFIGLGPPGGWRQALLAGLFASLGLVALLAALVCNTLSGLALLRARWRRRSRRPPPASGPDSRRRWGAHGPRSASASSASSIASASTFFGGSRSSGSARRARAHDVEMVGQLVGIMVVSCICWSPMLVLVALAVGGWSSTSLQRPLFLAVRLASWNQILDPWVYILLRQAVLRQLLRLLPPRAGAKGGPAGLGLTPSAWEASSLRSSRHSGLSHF
Kind of series: Antagonist activity at EP1 receptor in human U2OS cells expressing Gqi5 assessed as inhibition of PGE2-induced response after 24 hrs by FLIPR assay. Format: functional, cell-based.

A short description of series [6]: Oral bioavailability in Sprague-Dawley rat at 2 mg/kg. Format: ADME, organism-based. The note with it: in vivo.
Series [7] is described as follows: Half life in Sprague-Dawley rat at 1 mg/kg, iv. The format is ADME, organism-based. Also on record: dose 1 mg/kg, route intravenous. The following applies: in vivo.
Series [8] is described as follows: Clearance in Sprague-Dawley rat at 1 mg/kg, iv and 2 mg/kg, po. Format: ADME, organism-based. The following applies: in vivo.
The nature of series [9]: Drug metabolism in rat liver S9 fraction assessed as NADPH-dependent glutathione conjugate level at 10 uM after 30 mins by LC-MS/MS analysis. Format: ADME, subcellular. The following applies: s9, 0.5 h.
Another series deals with Cytochrome P450 3A4 (Homo sapiens, UniProt P08684). Kind of series: Inhibition of CYP3A4. Format: ADME.
Sequence of Cytochrome P450 3A4 (P08684 whole entry): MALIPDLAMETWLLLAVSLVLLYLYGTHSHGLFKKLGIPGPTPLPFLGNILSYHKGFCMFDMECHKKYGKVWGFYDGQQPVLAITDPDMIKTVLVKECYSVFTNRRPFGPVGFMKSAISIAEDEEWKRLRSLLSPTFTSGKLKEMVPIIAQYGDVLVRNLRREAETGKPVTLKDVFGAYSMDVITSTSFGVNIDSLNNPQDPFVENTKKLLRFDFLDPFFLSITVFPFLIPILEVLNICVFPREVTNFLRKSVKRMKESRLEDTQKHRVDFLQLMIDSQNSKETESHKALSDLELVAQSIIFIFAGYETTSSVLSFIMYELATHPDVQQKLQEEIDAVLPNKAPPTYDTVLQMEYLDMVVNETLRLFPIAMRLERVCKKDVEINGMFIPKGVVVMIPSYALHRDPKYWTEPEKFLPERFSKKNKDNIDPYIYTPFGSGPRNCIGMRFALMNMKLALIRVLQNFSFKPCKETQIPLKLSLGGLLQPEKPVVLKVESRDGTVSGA
In series [10] the target is T4, Prostaglandin G/H synthase 1 (Rattus norvegicus, UniProt Q63921).
T4 sequence (Q63921 whole entry): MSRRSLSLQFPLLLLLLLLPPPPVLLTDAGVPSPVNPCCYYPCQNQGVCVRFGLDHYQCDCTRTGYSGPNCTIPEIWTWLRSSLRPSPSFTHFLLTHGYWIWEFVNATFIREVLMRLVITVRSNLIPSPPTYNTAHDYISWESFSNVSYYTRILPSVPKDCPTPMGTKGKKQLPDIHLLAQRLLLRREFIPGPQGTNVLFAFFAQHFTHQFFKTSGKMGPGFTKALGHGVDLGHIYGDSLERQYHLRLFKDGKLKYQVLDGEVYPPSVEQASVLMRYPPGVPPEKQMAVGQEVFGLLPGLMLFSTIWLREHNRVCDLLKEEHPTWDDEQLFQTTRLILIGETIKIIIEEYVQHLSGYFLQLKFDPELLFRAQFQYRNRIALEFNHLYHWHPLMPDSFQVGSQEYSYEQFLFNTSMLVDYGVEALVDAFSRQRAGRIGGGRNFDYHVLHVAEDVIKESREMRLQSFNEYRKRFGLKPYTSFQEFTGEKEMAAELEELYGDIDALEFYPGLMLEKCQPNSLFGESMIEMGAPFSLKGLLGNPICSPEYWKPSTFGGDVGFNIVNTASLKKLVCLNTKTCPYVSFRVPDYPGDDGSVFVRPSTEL
Kind of series: Inhibition of COX1 in rat whole blood assessed as decreased PGE2 production. Format: tissue-based.

Series [11] addresses Prostaglandin E2 receptor EP4 subtype (Homo sapiens, UniProt P35408). Kind of series: Binding affinity at human EP4 receptor.
In series [12] the target is Voltage-gated inwardly rectifying potassium channel KCNH2 (Homo sapiens, UniProt Q12809). Kind of series: Inhibition of human ERG.
Sequence of Voltage-gated inwardly rectifying potassium channel KCNH2 (Q12809 whole entry): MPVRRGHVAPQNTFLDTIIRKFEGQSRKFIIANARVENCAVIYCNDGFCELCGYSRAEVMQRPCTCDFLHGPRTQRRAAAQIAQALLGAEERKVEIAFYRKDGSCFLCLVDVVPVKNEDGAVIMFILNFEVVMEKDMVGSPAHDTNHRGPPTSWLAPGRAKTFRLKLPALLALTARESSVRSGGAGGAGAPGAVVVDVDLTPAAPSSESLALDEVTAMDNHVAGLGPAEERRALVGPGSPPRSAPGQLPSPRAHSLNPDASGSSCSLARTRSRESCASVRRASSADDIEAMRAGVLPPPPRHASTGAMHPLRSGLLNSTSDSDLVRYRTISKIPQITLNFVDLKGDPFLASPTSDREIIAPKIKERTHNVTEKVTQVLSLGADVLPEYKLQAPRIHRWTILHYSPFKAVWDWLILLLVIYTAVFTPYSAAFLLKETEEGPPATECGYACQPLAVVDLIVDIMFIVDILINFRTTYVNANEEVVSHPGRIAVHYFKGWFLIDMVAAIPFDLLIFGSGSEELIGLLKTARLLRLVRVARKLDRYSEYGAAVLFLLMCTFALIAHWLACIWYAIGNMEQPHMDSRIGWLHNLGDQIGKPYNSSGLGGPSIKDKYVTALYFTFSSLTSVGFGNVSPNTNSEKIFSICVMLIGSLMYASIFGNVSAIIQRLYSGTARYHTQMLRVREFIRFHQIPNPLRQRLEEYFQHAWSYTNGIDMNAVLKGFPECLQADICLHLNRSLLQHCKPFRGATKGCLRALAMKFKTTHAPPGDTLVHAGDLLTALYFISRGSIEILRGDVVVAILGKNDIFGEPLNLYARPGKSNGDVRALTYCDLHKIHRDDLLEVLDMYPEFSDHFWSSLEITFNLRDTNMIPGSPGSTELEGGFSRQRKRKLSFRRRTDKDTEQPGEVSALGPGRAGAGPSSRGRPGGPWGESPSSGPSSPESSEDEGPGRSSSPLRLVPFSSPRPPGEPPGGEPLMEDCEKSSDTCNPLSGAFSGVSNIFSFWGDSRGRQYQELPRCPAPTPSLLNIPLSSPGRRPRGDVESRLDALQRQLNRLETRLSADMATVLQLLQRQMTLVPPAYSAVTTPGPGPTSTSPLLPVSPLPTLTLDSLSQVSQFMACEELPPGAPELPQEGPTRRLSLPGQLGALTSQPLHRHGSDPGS

Structures are written as SMILES.

Sequence of Prostaglandin F2-alpha receptor (P43088 whole entry): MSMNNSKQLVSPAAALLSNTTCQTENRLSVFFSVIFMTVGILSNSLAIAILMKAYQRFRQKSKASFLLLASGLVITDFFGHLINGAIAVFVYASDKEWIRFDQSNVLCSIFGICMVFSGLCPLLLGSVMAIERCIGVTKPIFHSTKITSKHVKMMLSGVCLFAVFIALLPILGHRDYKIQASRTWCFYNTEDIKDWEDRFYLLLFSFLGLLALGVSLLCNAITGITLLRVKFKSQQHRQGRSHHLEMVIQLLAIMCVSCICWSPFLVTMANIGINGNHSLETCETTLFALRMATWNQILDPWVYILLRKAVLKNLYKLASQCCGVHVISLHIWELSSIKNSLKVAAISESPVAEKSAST
Sequence of Prostaglandin E2 receptor EP4 subtype (P35408 whole entry): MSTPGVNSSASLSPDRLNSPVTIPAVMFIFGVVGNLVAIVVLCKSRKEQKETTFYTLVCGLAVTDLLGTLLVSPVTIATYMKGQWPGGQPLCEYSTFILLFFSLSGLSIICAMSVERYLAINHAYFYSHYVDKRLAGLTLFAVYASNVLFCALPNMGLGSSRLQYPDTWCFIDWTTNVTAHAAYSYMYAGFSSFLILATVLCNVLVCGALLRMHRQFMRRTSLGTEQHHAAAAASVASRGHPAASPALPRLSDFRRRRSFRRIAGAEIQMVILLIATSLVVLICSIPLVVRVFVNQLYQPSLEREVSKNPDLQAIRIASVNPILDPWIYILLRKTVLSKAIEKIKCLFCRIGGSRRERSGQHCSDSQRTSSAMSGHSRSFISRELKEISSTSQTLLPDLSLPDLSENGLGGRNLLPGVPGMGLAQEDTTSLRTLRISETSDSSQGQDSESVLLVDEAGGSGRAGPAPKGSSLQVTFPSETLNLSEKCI

With `CC(C)C1(c2ccc(-c3ccc4ccccc4c3)[nH]c2=O)OC(O)=NC1=O` (centres undefined), the IC50 in [1] was > 50.1 µM; in series [2] it was > 100 µM; in series [3] it was > 50.1 µM; against Cytochrome P450 2C9, > 50.1 µM; at Cytochrome P450 3A4, > 50.1 µM; in series [10], > 100 µM. The half-inhibitory concentration (IC50) in [11] and in [12] was > 50.1 µM throughout. For the same compound, the inhibition constant Ki was 0.01 µM in series [4] and > 50.1 µM in series [5]. The compound also displayed a bioavailability in [6] of 83%. For the same compound, the half-life in series [7] is 4 h. The compound also came in with a clearance in series [8] of 2.6 mL/min/kg. The Drug metabolism entry in series [9] is “Active”.

For the origin of these results see ChEMBL document CHEMBL2034937, “Novel 3-Oxazolidinedione-6-aryl-pyridinones as Potent, Selective, and Orally Active EP3 Receptor Antagonists” (ACS Med Chem Lett, 2010).
